This is an account of results in patent publication US20080076786A1, “USE OF RADICAL-SCAVENGING COMPOUNDS FOR TREATMENT AND PREVENTION OF NO-DEPENDENT MICROCIRCULATION DISORDERS” (priority 2001, published 2008).

For test [1], the system named is reoccurrence of myocardial infarcts (MI). Particulars: chronic application, published meta analysis; cited from earlier work.
Test [2] deals with oxygen radicals and proteinuria. Particulars: experimental animals with aminonucleoside nephropathy; cited from earlier work.
The next test deals with lipid peroxidation. To be noted: human nonneoplastic lung tissue; cited from earlier work.
Another test relates to stroke risk. Particulars: ESPS-2, compared with low-dose aspirin / aspirin alone; cited from earlier work.
In a further test the test system is NO Synthetase. In words: NO Synthetase knock-out mice, NO synthetase activity blocked or partially inhibited. In kind it is in vivo. To be noted: NO Synthetase activity blocked or reduced; compared with pravastatin on elevating NO production.

As for `CC(=O)Oc1ccccc1C(=O)O` [Aspirin, acetyl salicylic acid], in test [1], the “reduction of the incidence of reoccurrence of myocardial infarcts” value is 18%.
`OCCN(CCO)c1nc(N2CCCCC2)c2nc(N(CCO)CCO)nc(N3CCCCC3)c2n1` [Dipyridamole, 2,6-bis(diethanolamino)-4,8-dipiperidino-pyrimido[5,4-d]pyrimidine]: in test [2], the “oxygen radicals and proteinuria” value was “suppress oxygen radicals and proteinuria”. Also, in the test on lipid peroxidation, the lipid peroxidation result is on record as “Inhibition of lipid peroxidation”. The “reduction of stroke risk” value in the test on stroke risk is listed as “as effective as low-dose aspirin”. Moreover, in the test with NO Synthetase, the “effect of NO sparing (preventing NO destruction)” value is listed as “seen as independent effect”.
